Results published in patent US4900539A, “Radiohalogenated thienylethylamine derivatives for evaluating local cerebral blood flow” (The United States of America as represented by the United …, priority 1988, dated 1990).

Legend:
[1] = Tissue distribution of 5-halothiophene-2-isopropylamines in Fisher rats (brain uptake and brain:blood); assay type: in vivo; conditions: for tissue uptake at 5 min / tissue uptake at 0.5 h / tissue uptake at 1 h: rat, brain, read-out: Mean Brain, % Dose/gm
Source text: TISSUE DISTRIBUTION OF 5-HALOTHIOPHENE-
Mean Brain, % Dose/gm (Mean Brain:Blood)

[2] = IMP versus HIPDM, cited from earlier work

CC(N)Cc1ccc([82Br])s1 (centres unmarked) [Br--82]
brain uptake and retention (in words) [1]: good brain uptake and retention | Mean Brain:Blood ([1]; 5 min): 10.4 | Mean Brain:Blood ([1]; 30 min): 4.1 | Mean Brain:Blood ([1]; 60 min): 2.2 | tissue uptake at 5 min ([1]; 5 min): 2.7 %ID/g | tissue uptake at 0.5 h ([1]; 30 min): 2.3 %ID/g | tissue uptake at 1 h ([1]; 60 min): 1.67 %ID/g

CC(N)Cc1ccc([125I])s1 (centres unmarked) [I--125]
brain uptake and retention (in words) [1]: high brain uptake and good retention | brain-to-blood ratios (in words) [1]: high brain-to-blood ratios | Mean Brain:Blood ([1]; 5 min): 6.0 | Mean Brain:Blood ([1]; 30 min): 3.7 | Mean Brain:Blood ([1]; 60 min): 2.1 | tissue uptake at 5 min ([1]; 5 min): 2.77 %ID/g | tissue uptake at 0.5 h ([1]; 30 min): 2.51 %ID/g | tissue uptake at 1 h ([1]; 60 min): 1.42 %ID/g

CC(C)NC(C)Cc1ccc(I)cc1 (centres unmarked) [IMP, N-isopropyl-p-iodoamphetamine]
lung clearance relative to HIPDM [2]: clears the lungs faster | amount of activity in the brain relative to HIPDM ([2]; five minutes after administration): almost twice the amount of activity in the brain
